Results from ChEMBL document CHEMBL6134815, “Research progress of LpxC inhibitor on Gram-negative bacteria” (Eur J Med Chem, 2025).
Values after ≈ are worked out from the molar mass of the structure shown. One block for each molecule: values may come before it.

Key:
Escherichia coli [1] = assay: Antibacterial activity against Escherichia coli ATCC 25922 incubated for 24 hrs by CLSI based micro-dilution method; format: functional
Salmonella typhimurium = assay: Antimicrobial activity against Salmonella enterica subsp. enterica serovar Typhimurium ATCC 14028 assessed as inhibition of bacterial growth measured for 24 hrs by standard broth microdilution method; format: functional
Pseudomonas aeruginosa [2] = assay: Antibacterial activity against Pseudomonas aeruginosa ATCC 27853 assessed as reduction in bacterial growth incubated for 18 hrs by broth micro-dilution method; format: functional
[3] = target: T1, UDP-3-O-acyl-N-acetylglucosamine deacetylase (Escherichia coli K-12, UniProt P0A725); assay: Inhibition of Escherichia coli LpxC
T1 sequence (P0A725 whole entry): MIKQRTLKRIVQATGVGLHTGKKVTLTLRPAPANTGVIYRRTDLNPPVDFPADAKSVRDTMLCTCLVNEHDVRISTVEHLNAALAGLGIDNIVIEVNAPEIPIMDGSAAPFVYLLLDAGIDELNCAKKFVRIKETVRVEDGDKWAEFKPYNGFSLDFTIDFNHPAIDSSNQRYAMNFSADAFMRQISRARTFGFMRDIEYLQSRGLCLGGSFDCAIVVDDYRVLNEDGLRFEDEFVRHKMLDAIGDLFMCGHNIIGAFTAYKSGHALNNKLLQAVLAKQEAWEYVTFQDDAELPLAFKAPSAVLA

Escherichia coli [4] = assay: Antibacterial activity against Escherichia coli ATCC 25922 assessed as reduction in bacterial growth incubated for 18 hrs by broth micro-dilution method; format: functional
Pseudomonas aeruginosa [5] = assay: Antibacterial activity against Pseudomonas aeruginosa ATCC 27853 assessed as reduction in bacterial growth by CLSI protocol based Mueller Hinton broth assay; format: functional
Klebsiella pneumoniae [6] = assay: Antibacterial activity against Klebsiella pneumoniae A651 assessed as reduction in bacterial growth by CLSI protocol based Mueller Hinton broth assay; format: functional
Escherichia coli [7] = assay: Antibacterial activity against Escherichia coli ATCC 25922 assessed as reduction in bacterial growth by CLSI protocol based Mueller Hinton broth assay; format: functional
[8] = target: T1, UDP-3-O-acyl-N-acetylglucosamine deacetylase; assay: Binding affinity to Escherichia coli LpxC assessed as inhibition constant
Morganella morganii = assay: Antimicrobial activity against Morganella morganii ATCC 25830 assessed as inhibition of microbial growth incubated for 18 hrs by micro-broth dilution method; format: functional
Haemophilus influenzae = assay: Antibacterial activity against Haemophilus influenzae ATCC 49247 assessed as inhibition of microbial growth incubated for 18 hrs by micro-broth dilution method; format: functional
Serratia marcescens = assay: Antibacterial activity against Serratia marcescens assessed as inhibition of bacterial growth by Muller-Hinton broth based serial dilution method; format: functional
Pseudomonas aeruginosa [9] = assay: Antibacterial activity against Pseudomonas aeruginosa PAO1; format: functional
Klebsiella pneumoniae [10] = assay: Antibacterial activity against Klebsiella pneumoniae ATCC 700603; format: functional
Escherichia coli [11] = assay: Antibacterial activity against Escherichia coli ATCC 25922; format: functional
Escherichia coli [12] = assay: Antibacterial activity against Escherichia coli assessed as bacterial growth inhibition; format: functional
Pseudomonas aeruginosa [13] = assay: Antibacterial activity against Pseudomonas aeruginosa assessed as bacterial growth inhibition; format: functional
Escherichia coli [14] = assay: Antibacterial activity against Escherichia coli CMCC 44568 assessed as reduction in bacterial growth incubated for 22 hrs byMueller-Hinton Broth assay; format: functional
Pseudomonas aeruginosa [15] = assay: Antibacterial activity against Pseudomonas aeruginosa CMCC 10104 assessed as reduction in bacterial growth incubated for 22 hrs byMueller-Hinton Broth assay; format: functional
[16] = Inhibition of Aquifex aeolicus LpxC
Escherichia coli [17] = assay: Anti-microbial activity against Escherichia coli ATCC 25922 assessed as reduction in bacterial growth incubated for 24 hrs By CLSI based micro-dilution method; format: functional
Klebsiella pneumoniae [18] = assay: Antibacterial activity against Klebsiella pneumoniae ATCC 700603 assessed as inhibition of bacterial growth incubated for 18 hrs by broth micro-dilution method; format: functional
[19] = target: T2, UDP-3-O-acyl-N-acetylglucosamine deacetylase (Pseudomonas aeruginosa (strain ATCC 15692 / PAO1 / 1C / PRS 101 / LMG12228), UniProt P47205); assay: Binding affinity to Pseudomonas aeruginosa LpxC assessed as inhibition constant
T2 sequence (P47205 whole entry): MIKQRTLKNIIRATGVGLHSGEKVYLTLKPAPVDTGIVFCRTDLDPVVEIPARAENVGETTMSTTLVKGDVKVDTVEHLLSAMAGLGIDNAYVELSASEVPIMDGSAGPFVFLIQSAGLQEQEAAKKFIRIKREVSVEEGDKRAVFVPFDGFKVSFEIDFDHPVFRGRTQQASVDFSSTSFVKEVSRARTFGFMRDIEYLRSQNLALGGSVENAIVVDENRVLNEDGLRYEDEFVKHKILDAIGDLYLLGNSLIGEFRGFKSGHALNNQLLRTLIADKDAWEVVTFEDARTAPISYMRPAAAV

Escherichia coli [20] = assay: Antimicrobial activity against Escherichia coli ATCC 25922 assessed as reduction in bacterial growth incubated for 18 hrs by micro-dilution method; format: functional
[21] = Toxicity in CD-1 mouse assessed as effective dose; conditions: in vivo
Klebsiella pneumoniae [22] = assay: Antibacterial activity against Klebsiella pneumoniae ATCC 43816 assessed as reduction in microbial growth incubated for 16 to 18 hrs by CLSI protocol based Muller Hinton broth assay; format: functional; conditions: time 16-18 hrs
Pseudomonas aeruginosa [23] = assay: Antibacterial activity against Pseudomonas aeruginosa assessed as reduction in bacterial growth; format: functional
Yersinia enterocolitica = assay: Antibacterial activity against Yersinia enterocolitica assessed as inhibition of bacterial growth incubated for 16 to 20 hrs by CLSI protocol based Muller Hinton broth assay; format: functional; conditions: time 16-20 hrs
Escherichia coli [24] = assay: Antibacterial activity against Escherichia coli ATCC 25922 assessed as reduction in bacterial growth; format: functional
Pseudomonas aeruginosa [25] = assay: Antibacterial activity against Pseudomonas aeruginosa ATCC 27853 assessed as reduction in bacterial growth by CLSI protocol based Muller Hinton broth assay; format: functional
Pseudomonas aeruginosa [26] = assay: Antibacterial activity against Pseudomonas aeruginosa PAO1 assessed as reduction in bacterial growth incubated for 24 hrs By CLSI based micro-dilution method; format: functional
[27] = target: T2, UDP-3-O-acyl-N-acetylglucosamine deacetylase; assay: Inhibition of Pseudomonas aeruginosa LpxC

Structure (SMILES): C[C@@H](O)[C@H](NC(=O)c1ccc(C#CC#Cc2ccccc2)cc1)C(=O)NO
- MIC (Escherichia coli [1]): 0.05 µg/mL (≈ 0.138 µM)
- MIC (Salmonella typhimurium): 0.024 µg/mL (≈ 0.0662 µM)
- MIC (Pseudomonas aeruginosa [2]): 0.74 µg/mL (≈ 2.04 µM)

Structure (SMILES): CS(=O)(=O)c1cc(=O)c(O)c(CNc2ccc(-c3ccc(N4CCOCC4)cc3)cc2)o1
- IC50 [3]: 100 nM

Structure (SMILES): CCCc1cc(C2=NC(C(=O)NO)CO2)ccc1OC (stereo not drawn)
- MIC (Escherichia coli [4]): 1 µg/mL (≈ 3.59 µM)

Structure (SMILES): C[C@@](CCN1Cc2cc(C#Cc3ccc([C@H]4C[C@@H]4CO)cc3)cn2C1=O)(C(=O)NO)S(C)(=O)=O
- MIC (Pseudomonas aeruginosa [5]): 0.5 µg/mL (≈ 1.03 µM)
- MIC (Klebsiella pneumoniae [6]): 0.125 µg/mL (≈ 0.257 µM)
- MIC (Escherichia coli [7]): 0.031 µg/mL (≈ 0.0638 µM)

Structure (SMILES): O=C(NO)[C@H]1O[C@@H](c2ccc(C#CC#Cc3ccccc3)cc2)[C@@H](O)[C@H]1O
- Ki [8]: 4400 nM

Structure (SMILES): O=C(NO)[C@@H](Cc1ccc2ccccc2c1)NS(=O)(=O)c1ccc2ccccc2c1
- MIC (Morganella morganii): 1 µg/mL
- MIC (Haemophilus influenzae): 1 µg/mL
- MIC (Serratia marcescens): 1 µg/mL (≈ 2.38 µM)
- IC50 [3]: 160 nM

Structure (SMILES): CC(O)C(CP(=O)(O)O)NC(=O)c1ccc(C#Cc2ccc(CN3CCOCC3)cc2)cc1 (stereo not drawn)
- MIC (Escherichia coli [12]): 0.28 µg/mL (≈ 0.593 µM)
- MIC (Pseudomonas aeruginosa [13]): 2.06 µg/mL (≈ 4.36 µM)

Structure (SMILES): N=C(N)N/N=C/c1ccc(C#CC#Cc2ccccc2Cl)cc1
- MIC (Escherichia coli [14]): 8 µg/mL (≈ 24.9 µM)
- MIC (Pseudomonas aeruginosa [15]): 4 µg/mL (≈ 12.5 µM)

Structure (SMILES): O=C(NO)[C@@H](OCc1ccc(C#Cc2ccc(CN3CCOCC3)cc2)cc1)[C@@H](O)COCc1ccccc1
- MIC (Escherichia coli [17]): 0.125 µg/mL (≈ 0.236 µM)

Structure (SMILES): CC(C)(N)[C@H](NC(=O)c1ccc(C#CC#C[C@@H]2C[C@H]2CO)cc1)C(=O)NO [ACHN-975]
- MIC (Klebsiella pneumoniae [22]): 0.5 µg/mL
- MIC (Pseudomonas aeruginosa [23]): ≤ 1 µg/mL
- MIC (Yersinia enterocolitica): 2 µg/mL (≈ 5.41 µM)
- MIC (Escherichia coli [24]): 0.125 µg/mL (≈ 0.338 µM)
- MIC (Pseudomonas aeruginosa [25]): 0.25 µg/mL (≈ 0.677 µM)

Structure (SMILES): O=C(NO)C1(NCc2ccc(-c3ccc(Cl)cc3F)c(F)c2)CCS(=O)(=O)CC1
- IC50 [27]: 0.2 nM
- MIC (Pseudomonas aeruginosa [26]): 0.25 µg/mL (≈ 0.562 µM)

Further lines, with some results ahead:

- IC50 [3]: 27000 nM
Structure (SMILES): O=C(CO/N=C/c1ccc(O)c(O)c1O)NC[C@H]1O[C@@H](n2ccc(=O)[nH]c2=O)[C@@H](O)[C@H]1O

- IC50 [3]: 100 nM
Structure (SMILES): CNC(=O)c1ccc(-c2ccc(NCc3oc(S(C)(=O)=O)cc(=O)c3O)cc2)cc1

- MIC (Pseudomonas aeruginosa [9]): 0.5 µg/mL (≈ 1.3 µM)
- MIC (Klebsiella pneumoniae [10]): 0.5 µg/mL (≈ 1.3 µM)
- MIC (Escherichia coli [11]): 0.12 µg/mL (≈ 0.313 µM)
Structure (SMILES): COC[C@@H]1C[C@H]1C#CC#Cc1ccc(C(=O)N[C@H](C(=O)NO)C(C)(C)N)cc1

- MIC (Escherichia coli [14]): 2 µg/mL (≈ 6.23 µM)
- MIC (Pseudomonas aeruginosa [15]): 1 µg/mL (≈ 3.12 µM)
Structure (SMILES): N=C(N)N/N=C/c1ccc(C#CC#Cc2ccc(Cl)cc2)cc1

- IC50 [3]: 115000 nM
- IC50 [16]: 192000 nM
Structure (SMILES): CCCCCC(=O)O[C@@H]1[C@@H](CP(C)(=O)O)CO[C@H](CO)[C@H]1O

- MIC90 (Klebsiella pneumoniae [18]): 0.125 µg/mL (≈ 0.332 µM)
- Ki [19]: 0.0089 nM
- MIC90 (Escherichia coli [20]): 0.5 µg/mL (≈ 1.33 µM)
Structure (SMILES): C[C@@](O)(C(F)F)[C@H](NC(=O)c1ccc(C#CC#CC2CC2)cc1)C(=O)NO
- ED50 [21]: 7.2 mg/kg/day

- MIC (Pseudomonas aeruginosa [5]): 1 µg/mL (≈ 2.12 µM)
- MIC (Klebsiella pneumoniae [6]): 0.25 µg/mL (≈ 0.53 µM)
- MIC (Escherichia coli [7]): 0.063 µg/mL (≈ 0.134 µM)
Structure (SMILES): C[C@]1(CO)C[C@@H]1C#CC#Cc1ccc2c(=O)n(CC[C@](C)(C(=O)NO)S(C)(=O)=O)cnc2c1

- MIC (Pseudomonas aeruginosa [26]): 0.06 µg/mL (≈ 0.143 µM)
Structure (SMILES): CC(O)C#CC#Cc1ccc(C2=NO[C@@H](C[C@](C)(C(=O)NO)S(C)(=O)=O)C2)cc1 (stereo partly drawn)

- MIC (Morganella morganii): 1 µg/mL
- MIC (Haemophilus influenzae): 1 µg/mL
- MIC (Serratia marcescens): 1 µg/mL (≈ 2 µM)
- IC50 [3]: 400 nM
Structure (SMILES): O=C(NO)[C@@H](Cc1ccc2ccccc2c1)NS(=O)(=O)c1ccc2cc(Br)ccc2c1

- Ki [8]: 3500 nM
- MIC (Escherichia coli [17]): 2 µg/mL (≈ 4.73 µM)
Structure (SMILES): O=C(NO)[C@H]1O[C@@H](c2ccc(C#Cc3ccc(CN4CCOCC4)cc3)cc2)C[C@H]1O
